Measured values as given in patent publication US10086039B2, “Lamin A, an activator of longevity/anti-aging SIRT1 protein” (THE UNIVERSITY OF HONG KONG, priority 2012, dated 2018).

Assays:
[1] = test system: H3K9ac; assay: H3K9ac level in wild-type, SIRT1 null and Lmna null cells (immunoblot, immunofluorescence); format: cell-based
Description: (§1) Western blotting was performed as described previously (Liu et al., 2005). Relative band intensity was measured by IMAGE J® and normalized to corresponding wild-type or untreated controls as indicated.
In addition to acetyl p53, H3K9ac is another substrate of SIRT1 deacetylase (Wang et al., 2008). This Example further investigates the effects of resveratrol on H3K9ac in the wild-type, SIRT1^−/− or Lmna null cells. […] Anti-H3K9ac immunofluorescence staining further confirmed the lamin A-dependent activation of SIRT1 by resveratrol (FIG. 3G).

[2] = test system: AMPK; assay: AMPK activation at low doses of resveratrol; format: cell-based; conditions: low doses (2-10 μM)
Description: It was shown that low doses of resveratrol (≤25 μM) activates AMPK in a SIRT1-dependent manner, while high doses (≥50 μM) activate AMPK independent of SIRT1 (Baur et al., 2006; Price et al., 2012; Sun et al., 2007). In the present invention, low doses (2-10 μM) of resveratrol were used and activation of AMPK was not observed; therefore, it is postulated that the beneficial effects of resveratrol on BMSCs are primarily attributable to the activation of SIRT1.

[3] = test system: Gadd45α and catalase; assay: Gadd45α and catalase expression in Zmpste24−/− BMSCs (Western blotting); format: cell-based, mouse
Description: (FIG. 4A) Resveratrol (10 μM) increased colony-forming capacity of Zmpste24^−/− BMSCs. Colony-forming assay was performed on freshly isolated bone marrow cells in 10 cm dishes in the presence and absence of resveratrol. (FIG. 4B) Colony number counting. […] Data represent mean±SEM, n=4. *P<0.05, RSV Vs Vehicle. (FIG. 4C) Left, level of prelamin A pull down by anti SIRT1 immunoprecipitates in BMSCs treated or untreated with resveratrol (2 μM) was determined by Immunoblotting; right, level of acetylated Foxo3a in resveratrol was assessed by Immunoblotting. (FIG. 4D) Levels of catalase and Gadd45α in SIRT1 or scramble siRNA treated Zmpste24^−/− BMSCs in the presence or absence of resveratrol (10 μM) determined by Western blotting. […] (FIG. 4F) Quantification of (FIG. 4E). […] (FIG. 4gG Levels of H3K9ac and IR-induced-H2AX with or without ectopic SIRT1 in wild-type and Zmpste24 null BMSCs were assessed by Western blotting. (FIG. 4H) Ectopic SIRT1 increased the colony-forming capacity of Zmpste24^−/− and wild-type BMSCs. Colony-forming assay was performed on freshly isolated cells in 6 cm dishes. (FIG. 4I) Quantification of (FIG. 4H). Data represent mean±SEM, n=5. *P<0.05, SIRT1 Vs Mock.
as §1

[4] = target: T1, SIRT1 (Homo sapiens, UniProt Q96EB6); assay: SIRT1 deacetylation assay on native full-length acetyl FLAG-p53 (Western blotting, anti-acetyl lysine); format: biochemical; parameters: purchased Biomol (Hamburg, Germany)
T1 sequence (Q96EB6 1-747): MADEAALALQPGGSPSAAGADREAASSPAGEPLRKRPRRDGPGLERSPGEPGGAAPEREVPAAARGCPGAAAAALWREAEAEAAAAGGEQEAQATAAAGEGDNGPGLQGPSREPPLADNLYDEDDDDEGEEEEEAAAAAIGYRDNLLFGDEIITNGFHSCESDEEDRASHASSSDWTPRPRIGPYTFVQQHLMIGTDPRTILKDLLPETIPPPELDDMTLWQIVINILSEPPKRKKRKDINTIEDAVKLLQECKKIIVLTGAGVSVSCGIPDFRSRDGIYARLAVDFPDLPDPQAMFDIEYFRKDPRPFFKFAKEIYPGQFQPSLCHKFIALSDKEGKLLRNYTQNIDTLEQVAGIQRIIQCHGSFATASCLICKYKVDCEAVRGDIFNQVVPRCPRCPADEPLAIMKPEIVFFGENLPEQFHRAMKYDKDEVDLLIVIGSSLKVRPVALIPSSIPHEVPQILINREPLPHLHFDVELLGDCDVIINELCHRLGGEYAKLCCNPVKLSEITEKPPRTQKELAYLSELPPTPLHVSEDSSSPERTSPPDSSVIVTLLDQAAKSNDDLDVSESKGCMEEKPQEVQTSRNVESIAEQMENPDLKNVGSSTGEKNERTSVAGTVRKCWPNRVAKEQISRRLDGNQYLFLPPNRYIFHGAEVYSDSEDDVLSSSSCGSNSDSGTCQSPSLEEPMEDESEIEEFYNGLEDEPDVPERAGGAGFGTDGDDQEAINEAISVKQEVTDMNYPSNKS
Description: SIRT1 deacetylation assay on fluorophore-conjugated synthetic p53 peptide was performed with SIRT1 Fluorimetric Drug Discovery Kit (Biomol, Hamburg, Germany) according to the manufactory's instruction. Cells were fractionated as described above except that protease inhibitors were NOT included and the nuclear matrix fraction was suspended into the assay buffer provided by the supplier. Different cell fractions or recombinant human lamin A (rhLamin A, Diatheva, Italy) were added in the reaction mix of SIRT1 Fluorimetric Drug Discovery Kit, incubated for 20 min at 37° C., and then the reaction was stopped and fluorescent signal was detected. SIRT1 deacetylase activity on native target was assayed using SIRT1 assay Kit from Sigma (USA). Constructs encoding FLAG-p53 and HA-p300 were co-transfected into HEK293 cells; FLAG-p53 was immunoprecipitated by anti-FLAG M2 Agarose (Sigma) followed by elution with FLAG peptide (Sigma). Purified acetyl FLAG-p53 was incubated with recombinant human SIRT1 (rhSIRT1) and NAD+ for 30 min at 37° C., in the presence or absence of rhLamin A or resveratrol. The acetylation level of FLAG-p53 was determined by Western blotting with pan anti acetyl lysine antibodies.
To further test the effect of rhLamin A on the native target of SIRT1, acetyl p53 was purified by anti-FLAG immunoprecipitation in HEK293 cells ectopically expressing FLAG-p53 and p300, and SIRT1 deacetylation assay was performed as described in Materials and Methods.

## Oc1ccc(C=Cc2cc(O)cc(O)c2)cc1 [resveratrol]
[1]; Lmna−/− cells
  effect on level of H3K9ac: completely abrogated
[1]; SIRT1−/− cells
  effect on level of H3K9ac: completely abrogated
[1]; wild-type cells
  level of H3K9ac: downregulated
[2]
  activation of AMPK: not observed
[3]; Zmpste24−/− BMSCs with SIRT1 knocked down
  stimulating effect on expression of Gadd45α and catalase: abolished the stimulating effect
[3]; Zmpste24−/− BMSCs, resveratrol 10 μM
  expression of Gadd45α and catalase: increased
[4]; in the presence of rhLamin A
  activation of SIRT1 deacetylase activity, native full-length FLAG-p53 as substrate: activated SIRT1 in a lamin A dose-dependent manner
[4]; without rhLamin A
  activation of SIRT1 deacetylase activity, native full-length FLAG-p53 as substrate: does not directly activate
